Test results from patent US20160177395A1, “BIOMARKERS FOR THE PREDICTION OF RENAL INJURY” (priority 2007, published 2016).
“And” between values parts separate entries of the source, which are not always exact repeats. Equal entries are not always repeated.

System: kidney tissues of treated or untreated rats
Assay: Real-time qRT-PCR of marker transcripts in kidney tissue panel, discovery stage (Table 22)
Assay type: in vivo, rat
Conditions: listed as Dox; for normalized Real Time PCR MMU09507_DB81_seg15: kidney; for H33998_DB71_seg19 normalized Real Time PCR / MUSCYCG1R_DB81_seg15-17 normalized Real Time PCR / RATLRFI_DB71_seg9 normalized Real Time PCR / RATRAB13X_DB71_seg11-13 normalized Real Time PCR / RNU24174_DB71_seg8 normalized Real Time PCR / W41270_DB81_seg11 normalized Real Time PCR / W64472_DB81_seg2 normalized Real Time PCR / W83813_DB81_seg27 normalized Real Time PCR / AA686189_DB71_seg6 normalized Real Time PCR expression / AI045075_DB71_seg6 normalized Real Time PCR expression / AI454051_DB71_seg0 normalized Real Time PCR expression / H31045_DB71_seg5 normalized Real Time PCR expression: rat kidney
Description: Before RT preparation the RNA was treated with DNA-free (Ambion, cat. No. AM1906) DNase treatment and removal—according to manufacturer protocol. DNase procedure was repeated until no DNA is detected in a PCR reaction using the RNA samples.
The mixture is then incubated for 5 min at 65° C. and then quickly chilled on ice. Thereafter, 20 μl of 5× SuperscriptII first strand buffer (Invitrogen, Cat. No. Y00146), 9.6 μl 0.1M DTT (Invitrogen, Cat. No. Y00147) and 160 units RNasin (Promega, Cat. No. N251A) are added, and the mixture is incubated for 10 min at 25° C., followed by further incubation at 42° C. for 2 min. […] The resulting cDNA is diluted 1:20 in TE buffer (10 mM Tris pH=8, 1 mM EDTA pH=8).
cDNA (5 μl), prepared as described above, is used as a template in Real-Time PCR reactions using the SYBR Green I assay (PE Applied Biosystem) with specific primers in 100 nM concentration if not indicated otherwise and UNG Enzyme (Eurogentech or equal) Amplification is effected as follows: 50° C. for 2 min, 95° C. for 10 min, and then 40 cycles of 95° C. for 15 sec, followed by 60° C. for 1 min (if not indicated otherwise). Amplification step is followed by dissociation step. Detection is performed by using the PE Applied Biosystem SDS 7000. The cycle in which the reactions achieved a threshold level (Ct) of fluorescence is registered and is used to calculate the relative transcript quantity in the RT reactions. Non-detected samples are assigned Ct value of 41 and are calculated accordingly. The relative quantity is calculated using the equation Q=efficiencŷ-Ct. The efficiency of the PCR reaction is calculated from a standard curve, created by using serial dilutions of several reverse transcription (RT) reactions. To minimize inherent differences in the RT reaction, the resulting relative quantities are normalized to normalization factor calculated as follows: […]
The relative quantity (Q) of each housekeeping gene in each sample is calculated as described above. In order to calculate the “relative Q relative to MED” each Q for each HSKP gene is divided by the median quantity of this gene in all panel samples. To finally achieve the normalization factor of each sample the geometric mean of all four “relative Q relative to MED” was calculated. The normalization factor was then used for further calculations.
The markers of the present invention were tested with regard to their expression in a panel of kidney tissues samples from treated and control rats. Unless otherwise noted, all experimental data relates to the novel polynucleotides and proteins of the present invention, named according to the segment being tested (as expression was tested through RT-PCR as described). Tests were then performed as described in the “Materials and Experimental Procedures” section above.
The qRT-PCR measurements were normalized according to each samples normalization factor as described in “RT Preparation and Real-Time qRT-PCR Analysis” and further multiplied by a constant factor for ease of viewing.

[1] = day1, individual animals (F and M)
[2] = day5, individual animals (F and M)
[3] = day28, individual animals (F and M)

COc1cccc2c1C(=O)c1c(O)c3c(c(O)c1C2=O)C[C@@](O)(C(=O)CO)C[C@@H]3O[C@H]1C[C@H](N)[C@H](O)[C@H](C)O1 [Doxorubicin]
normalized Real Time PCR MMU09507_DB81_seg15 (female rats, day1): 0.48 and 0.52 and 0.93
normalized Real Time PCR MMU09507_DB81_seg15 (female rats, day5): 2.07 and 1.46 and 1.82
normalized Real Time PCR MMU09507_DB81_seg15 (female rats, day28): 4.47 and 2.99 and 2.89
normalized Real Time PCR MMU09507_DB81_seg15 (male rats, day1): 0.74 and 0.71 and 0.59
normalized Real Time PCR MMU09507_DB81_seg15 (male rats, day5): 1.74 and 1.67
normalized Real Time PCR MMU09507_DB81_seg15 (male rats, day28): 3.04 and 2.93 and 2.13
H33998_DB71_seg19 normalized Real Time PCR [1]: 1.25 and 1.34 and 2.14 and 0.97 and 1.07 and 2.75
MUSCYCG1R_DB81_seg15-17 normalized Real Time PCR [1]: 1.66 and 1.12 and 1.36 and 0.56 and 0.64 and 0.66
RATLRFI_DB71_seg9 normalized Real Time PCR [1]: 0.25 and 0.21 and 0.31 and 0.46 and 0.48 and 0.24
RATRAB13X_DB71_seg11-13 normalized Real Time PCR [1]: 1.1 and 0.9 and 1 and 0.88 and 1.09 and 0.86
RNU24174_DB71_seg8 normalized Real Time PCR [1]: 0.29 and 0.35 and 0.31 and 0.48 and 0.49 and 0.36
W41270_DB81_seg11 normalized Real Time PCR [1]: 2.24 and 1.2 and 1.56 and 1.74 and 0.95 and 0.91
W64472_DB81_seg2 normalized Real Time PCR [1]: 1.58 and 1.09 and 1.15 and 0.86 and 0.77 and 0.56
W83813_DB81_seg27 normalized Real Time PCR [1]: 2.9 and 1.56 and 2 and 0.68 and 0.78 and 0.64
AA686189_DB71_seg6 normalized Real Time PCR expression (day1, individual animals): 0.59 and 0.49 and 0.39 and 0.78 and 0.4 and 0.26
AI045075_DB71_seg6 normalized Real Time PCR expression (day1, individual animals): 1.12 and 1.21 and 0.78 and 0.61 and 0.64 and 3.12
AI454051_DB71_seg0 normalized Real Time PCR expression (day1, individual animals): 1.2 and 1.05 and 1.54 and 0.8 (2×) and 1.03
H31045_DB71_seg5 normalized Real Time PCR expression (day1, individual animals): 1.15 and 0.3 and 1.95 and 0.23 and 0.32 and 0.75
H33998_DB71_seg19 normalized Real Time PCR [2]: 2.39 and 1.29 and 3.68 and 1.19 and 1.37
MUSCYCG1R_DB81_seg15-17 normalized Real Time PCR [2]: 1.51 and 1.97 and 3.17 and 1.65 and 2
RATLRFI_DB71_seg9 normalized Real Time PCR [2]: 0.46 and 0.29 and 0.18 and 0.47 and 0.25
RATRAB13X_DB71_seg11-13 normalized Real Time PCR [2]: 1.17 and 1.16 and 0.94 and 0.7 and 0.83
RNU24174_DB71_seg8 normalized Real Time PCR [2]: 0.83 and 0.59 and 0.63 and 1.08 and 0.87
W41270_DB81_seg11 normalized Real Time PCR [2]: 1.71 and 1.37 and 2.13 and 1.64 and 1.35
W64472_DB81_seg2 normalized Real Time PCR [2]: 1.97 and 1.36 and 2.36 and 3 and 2.54
W83813_DB81_seg27 normalized Real Time PCR [2]: 2.28 and 1.99 and 2.9 and 1.3 and 1.41
AA686189_DB71_seg6 normalized Real Time PCR expression (day5, individual animals): 1.2 and 0.6 and 0.51 and 0.48 and 0.38
AI045075_DB71_seg6 normalized Real Time PCR expression (day5, individual animals): 0.93 (2×) and 2.05 and 0.76 and 0.57
AI454051_DB71_seg0 normalized Real Time PCR expression (day5, individual animals): 1.17 and 1.35 and 1.44 and 0.3 and 0.95
H31045_DB71_seg5 normalized Real Time PCR expression (day5, individual animals): 1.86 and 1.19 and 0.52 and 0.35 and 1.41
H33998_DB71_seg19 normalized Real Time PCR [3]: 0.48 and 0.58 and 0.96 and 0.64 and 0.44 and 0.54
MUSCYCG1R_DB81_seg15-17 normalized Real Time PCR [3]: 1.07 and 1.52 and 1.26 and 0.99 and 0.98 and 1.28
RATLRFI_DB71_seg9 normalized Real Time PCR [3]: 0.72 and 0.4 and 1.47 and 8.34 and 0.53 and 1.08
